The text below walks through data of PubChem BioAssay (NCI).

Test systems include UO-31 renal; NCI/ADR-RES ovarian; K-562 leukemia; HCT-116 colon; LOX IMVI melanoma; HS 578T breast; OVCAR-8 ovarian; CCRF-CEM leukemia; MCF7 breast; A498 renal.
Experiment in all cases: NCI anticancer screen, dose series, 48 h

Molecules are shown by their SMILES. Values joined by “and” are separate entries in the source; they are usually repeats but may differ in a detail not shown here. Identical values can stand only once.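 Where inhibition never reached the appropriate level, the endpoint shown equals the highest concentration tested. Otherwise, values were interpolated linearly from a five-concentration, 48-hour dose response in 96-well plates. GI50 is the concentration that inhibits growth by half. Definition used: TGI = concentration required for complete inhibition of growth.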 Bounds are passed on as bounds.

`COc1ccc(/C=C\c2cc(OC)c(OC)c(OC)c2)cc1OC(=O)C(N)CCC(=O)O` (stereo unspecified): the GI50 in the test on UO-31 renal is 0.000436 µM and < 0.0001 µM; with NCI/ADR-RES ovarian, 0.000317 µM; in the test with K-562 leukemia it was 0.000311 µM and 7.02e-05 µM; with HCT-116 colon, 0.000425 µM; in the test with LOX IMVI melanoma it was 0.000605 µM and 0.000284 µM and < 0.0001 µM; in the test with HS 578T breast it was 0.000788 µM and 0.00046 µM. The GI50 is 0.000112 µM with OVCAR-8 ovarian, 0.000576 µM in the test on CCRF-CEM leukemia and 0.00503 µM in the test on MCF7 breast. The TGI with NCI/ADR-RES ovarian is 0.608 µM; in the test on LOX IMVI melanoma, above 33.9 µM; in the test with CCRF-CEM leukemia, above 100 µM; in the test on MCF7 breast it was above 100 µM.

For the molecule `CC(C)(C)C(=O)Nc1ccccc1I(=O)=O`, the GI50 in the test on UO-31 renal, with NCI/ADR-RES ovarian, in the test with K-562 leukemia, in the test with LOX IMVI melanoma, with HS 578T breast and in the test on OVCAR-8 ovarian was above 100 µM each time. Moreover, the GI50 in the test on CCRF-CEM leukemia, with MCF7 breast and with A498 renal was above 100 µM throughout. Also, the TGI in the test with UO-31 renal, with NCI/ADR-RES ovarian, in the test with K-562 leukemia, with LOX IMVI melanoma, with HS 578T breast and in the test with OVCAR-8 ovarian was above 100 µM throughout. For the same molecule, the TGI in the test with CCRF-CEM leukemia, in the test on MCF7 breast and in the test on A498 renal was above 100 µM in each case.

Turning to `CCCCCCCCCNCCCCCCCCC`, the GI50 is 1.62 µM with UO-31 renal; 1.71 µM with NCI/ADR-RES ovarian; 1.77 µM in the test with HCT-116 colon; 1.61 µM in the test with LOX IMVI melanoma; 1.83 µM with HS 578T breast; 2.19 µM with OVCAR-8 ovarian. In addition, the GI50 in the test with MCF7 breast was 1.7 µM; with A498 renal it was 9.79 µM. In addition, the TGI in the test on UO-31 renal worked out at 3.8 µM; in the test on NCI/ADR-RES ovarian it was 3.37 µM; in the test on HCT-116 colon, 3.16 µM; in the test with LOX IMVI melanoma, 3.02 µM; with HS 578T breast, 4.16 µM; in the test with OVCAR-8 ovarian, 4.66 µM. Besides, the TGI in the test on MCF7 breast was 3.3 µM; in the test on A498 renal it was 24.5 µM.

For the molecule `CC1(C)COCN1COC1CCCCC1`, the TGI in the test on UO-31 renal, in the test on NCI/ADR-RES ovarian, in the test with K-562 leukemia, with HCT-116 colon, in the test with HS 578T breast and with OVCAR-8 ovarian was above 100 µM throughout. Further, the TGI with CCRF-CEM leukemia, with MCF7 breast and in the test with A498 renal was above 100 µM each time.

In the case of `N#Cc1ccccc1NC(=O)/C(=N\NC(=O)c1ccncc1)C(c1cnc2ccc([N+](=O)[O-])cc2n1)[N+](=O)[O-]` (stereo unspecified), the TGI in the test on UO-31 renal, in the test with NCI/ADR-RES ovarian, in the test on HCT-116 colon, in the test with LOX IMVI melanoma, in the test on HS 578T breast and with OVCAR-8 ovarian was above 100 µM throughout. Also, the TGI in the test with CCRF-CEM leukemia, in the test on MCF7 breast and in the test on A498 renal was above 100 µM each time.

On to `O=C1CCCCCCCC/C=C/CCC(c2ccco2)O1` (stereo unspecified), for which the GI50 in the test on NCI/ADR-RES ovarian was above 100 µM; in the test on K-562 leukemia it was 35.2 µM; with HCT-116 colon, 31.2 µM; in the test with LOX IMVI melanoma it was 35.3 µM; in the test on HS 578T breast, 16.2 µM; in the test on OVCAR-8 ovarian, 88.1 µM. Moreover, the GI50 in the test on CCRF-CEM leukemia is 27 µM; with MCF7 breast, 15.8 µM. The TGI in the test on NCI/ADR-RES ovarian is above 100 µM; in the test with K-562 leukemia, above 100 µM; with HCT-116 colon, above 100 µM; in the test on LOX IMVI melanoma, 87.3 µM; in the test on HS 578T breast, 77.9 µM; in the test with OVCAR-8 ovarian it was above 100 µM. The TGI in the test with CCRF-CEM leukemia and with MCF7 breast was above 100 µM each time.

Turning to `COC(=O)NC/C=C\c1nc(CC/C=C\C(=O)OC2CC3CC(=O)O[C@H](/C=C/CC(C)C)C[C@H]4CCC(C)C(C[C@H](OC)CC(C2)O3)O4)co1` (stereo partly specified), the GI50 is 25.4 µM with UO-31 renal; 59 µM in the test with NCI/ADR-RES ovarian; below 0.01 µM in the test with K-562 leukemia; below 0.01 µM in the test on HCT-116 colon; 18.2 µM with HS 578T breast; above 100 µM in the test on OVCAR-8 ovarian. Moreover, the GI50 in the test on MCF7 breast is below 0.01 µM; in the test with A498 renal it was 13.6 µM. Further, the TGI in the test on UO-31 renal is above 100 µM; with NCI/ADR-RES ovarian it was above 100 µM; with K-562 leukemia it was 20.3 µM; in the test with HCT-116 colon, 37.5 µM; in the test with HS 578T breast, above 100 µM; with OVCAR-8 ovarian, above 100 µM. Also, the TGI in the test on MCF7 breast was determined as 10.5 µM; in the test with A498 renal, 57.1 µM.

Consider `N#CC1=C(N)NC(=S)NC12Nc1ccccc1O2` (stereo unspecified), for which the GI50 is 25.4 µM in the test with UO-31 renal; 20.5 µM in the test with NCI/ADR-RES ovarian; 13.7 µM with K-562 leukemia; 22.5 µM in the test with HCT-116 colon; 20.2 µM in the test on LOX IMVI melanoma; 19.1 µM in the test with HS 578T breast. Besides, the results for the GI50 in the test with OVCAR-8 ovarian, in the test on CCRF-CEM leukemia and in the test with MCF7 breast were 46.2 µM, 61.7 µM and 27.2 µM, respectively. Besides, the TGI in the test on UO-31 renal is above 100 µM; in the test with NCI/ADR-RES ovarian, 69.6 µM; with K-562 leukemia it was above 100 µM; in the test on HCT-116 colon, 85.2 µM; in the test with LOX IMVI melanoma, 50.4 µM; with HS 578T breast, 60.2 µM. The TGI in the test on OVCAR-8 ovarian, in the test on CCRF-CEM leukemia and with MCF7 breast was above 100 µM throughout.

Take `COC(=O)COc1ccc(/C=C2\N=C(c3ccccc3)N(c3cc(C(F)(F)F)ccc3Cl)C2=O)cc1`: the GI50 with UO-31 renal was 27.1 µM; with NCI/ADR-RES ovarian, 52.6 µM; with K-562 leukemia, 47.3 µM; with HCT-116 colon it was 38.4 µM; with LOX IMVI melanoma, 21.8 µM; with HS 578T breast, 83.7 µM. The GI50 in the test on OVCAR-8 ovarian is 40.4 µM; with MCF7 breast it was 59.8 µM. In addition, the TGI in the test with UO-31 renal is above 100 µM; in the test with NCI/ADR-RES ovarian it was above 100 µM; in the test with K-562 leukemia, above 100 µM; with HCT-116 colon, above 100 µM; in the test with LOX IMVI melanoma, 53.3 µM; in the test on HS 578T breast, above 100 µM. The TGI with OVCAR-8 ovarian and in the test on MCF7 breast was above 100 µM in each case.
